Measurements from US11241437B2, “Heterocyclic compounds, preparation methods and uses thereof” (InventisBio Co., Ltd., priority 2019, dated 2022).
Values after ≈ are worked out from the molar mass of the structure shown. Like-named read-outs stand apart in the source and are kept apart here.

Columns and labels:
Format in all cases: physicochemical
[1] = Solubility of Compound 1 solid forms in bio-relevant media and water
Experimental: Solubility Studies: Solubility of Form IV was tested in three bio-relevant media (Simulated Gastric Fluid (SGF), Fasted State Simulated Intestinal Fluid (FaSSIF), and Fed State Simulated Intestinal Fluid (FeSSIF)) and water. […] Form IV (˜10 mg) was weighed into 2 mL of four media to make suspensions respectively, and about 10 mg of the amorphous starting material was also added into 2 mL of FaSSIF. Then all suspensions were shaken at 37° C. with 200 rpm for up to 24 hours. At 0.5, 2 and 24 hours, about 0.7 mL of each suspension was filtered. The filtrate was analyzed by HPLC and pH meter, and the residual solids were also checked by XRPD at 24 hours.

[2] = Stability studies of Form IV of Compound 1 (HPLC and XRPD)
Experimental: Method 1. a representative HPLC method is shown below, which can be used, for example, to analyze the purity, solubility, and stability of Compound 1 herein.
Stability Studies: Appropriate amounts of Form IV were put at 40° C./75% RH, 60° C. and 25±2° C./92.5% RH conditions for 14 days. Then the sample was tested by HPLC and XRPD to determine the chemical and physical stability.

[3] = Dynamic moisture sorption analysis (DVS) of Form IV of Compound 1
Experimental: Method 1. Used for studies with solid state of Compound 1. Moisture sorption/desorption data was collected on a DVS Intrinsic (SMS, UK). The sample was placed into a tared sample chamber and automatically weighed. The sample was dried at 40° C. until the dm/dt was less than 0.002% and cooled to 25° C. Set the instrument parameters as below.

[4] = Interconversion studies of solid forms of Compound 1 (slurry); details: water or MeOH/water (1/4) at RT and 50° C. for 3 days
Experimental: Interconversion Studies: Equal amounts (˜7 mg) of Form I, II and III were mixed together and then suspended in 0.5 mL of different solvents at room temperature or 50° C., respectively. Residual solids were collected by filtration and characterized at appropriate time. Additionally, Form IV (˜12 mg) was slurried in 0.5 ml, water or MeOH/water (1/4) at RT or 50° C. for 3 days. Residual solids were collected by filtration and analyzed by XRPD.

[5] = Mechanical stability (grinding) of Form IV of Compound 1; details: ground for 2 and 5 min
Experimental: Form IV was also tested for mechanical stability. In this case, appropriate amount of Form IV was ground for 2 and 5 min, and then tested by XRPD to check the crystal form.

[6] = Polymorph characterization summary of Compound 1 forms (form stability)
Description: In the polymorph screening, five XRPD Patterns (FIG. 11) were generated, and four forms were identified including 2 anhydrates and 2 hydrates.

What does the source list for `C=CC(=O)N1C[C@H](C)N(c2nc(=O)n(-c3c(C4CC4)ncnc3C3CC3)c3nc(-c4c(N)cccc4F)c(Cl)cc23)C[C@H]1C` [Form IV]?
Solubility ([1]; FaSSIF, 37° C., 0.5 h): 17 µg/mL (≈ 27.6 µM); Solubility ([1]; FaSSIF, 37° C., 2 h): 16 µg/mL (≈ 26 µM); Solubility ([1]; FaSSIF, 37° C., 24 h): 21 µg/mL (≈ 34.1 µM); XRPD-24 h of residual solids ([1]; FaSSIF, 37° C., 24 h): unchanged; Solubility in FaSSIF ([1]; FaSSIF, time point not stated): 20 µg/mL (≈ 32.5 µM); XRPD-24 h of residual solids ([1]; FeSSIF, 37° C., 24 h): unchanged; solubility at 0.5 h ([1]; FeSSIF, 37 °C, thermodynamic from solid, 0.5 h): 37 µg/mL (≈ 60.2 µM); solubility at 2 h ([1]; FeSSIF, 37 °C, thermodynamic from solid, 2 h): 37 µg/mL (≈ 60.2 µM); solubility at 24 h ([1]; FeSSIF, 37 °C, thermodynamic from solid, 24 h): 62 µg/mL (≈ 101 µM); XRPD-24 h of residual solids ([1]; SGF, 37° C., 24 h): unchanged; solubility at 0.5 h ([1]; SGF, 37 °C, simulated gastric fluid, thermodynamic from solid, 0.5 h): 36 µg/mL (≈ 58.5 µM); solubility at 2 h ([1]; SGF, 37 °C, simulated gastric fluid, thermodynamic from solid, 2 h): 34 µg/mL (≈ 55.3 µM); solubility at 24 h ([1]; SGF, 37 °C, simulated gastric fluid, thermodynamic from solid, 24 h): 36 µg/mL (≈ 58.5 µM); Solubility ([1]; SGF, FeSSIF, water, 37 °C, thermodynamic from solid, media other than FaSSIF (SGF, FeSSIF, water), read-out: Solubility in other media): < 70 µg/mL; XRPD-24 h of residual solids ([1]; Water, 37° C., 24 h): unchanged; solubility at 0.5 h ([1]; water, 37 °C, thermodynamic from solid, 0.5 h): 14 µg/mL (≈ 22.8 µM); solubility at 2 h ([1]; water, 37 °C, thermodynamic from solid, 2 h): 11 µg/mL (≈ 17.9 µM); solubility at 24 h ([1]; water, 37 °C, thermodynamic from solid, 24 h): 9 µg/mL (≈ 14.6 µM); Purity ([2]; 40° C./75% RH, 7 D): 98.21 Area %; Purity ([2]; 40° C./75% RH, 14 D): 98.12 Area %; Physical stability, XRPD ([2]; 40° C./75% RH, 60° C. and 25° C./92.5% RH, 14 days): XRPD remained unchanged; Chemical stability, impurities ([2]; 60° C. for 2 weeks): a new impurity was detected; Purity ([2]; 60° C., 7 D): 97.98 Area %; Purity ([2]; 60° C., 14 D): 97.88 Area %; Purity-initial ([2]; initial, before storage): 98.30 Area %; Crystal form after DVS testing [3]: remained unchanged; Hygroscopicity (DVS) ([3]; 25° C.): slightly hygroscopic; Water uptake (DVS) ([3]; at 80% RH, 25° C.): about 1.37%; Form after slurry in aqueous systems (XRPD) [4]: remained unchanged; Crystal form after grinding (XRPD) [5]: no new form was generated; Stability of the solid form [6]: Stable form, slightly
